# Data as given in article PMC8213057, “Targeting ALK2: An Open Science Approach to Developing Therapeutics for the Treatment of Diffuse Intrinsic Pontine Glioma” (Journal of Medicinal Chemistry, 2020).
# Tests used:
# MRCKb/CDC42BPB = MRCKb/CDC42BPB (Homo sapiens, UniProt Q9Y5S2); assay: biochemical; conditions: read-out: % enzyme activity, 1 μM; Run 1, Run 2
# MARK4 = biological target: T1, MARK4 (Homo sapiens, UniProt Q96L34); assay: biochemical; conditions: read-out: % enzyme activity, 1 μM; Run 1, Run 2
# T1 sequence (Q96L34 1-752): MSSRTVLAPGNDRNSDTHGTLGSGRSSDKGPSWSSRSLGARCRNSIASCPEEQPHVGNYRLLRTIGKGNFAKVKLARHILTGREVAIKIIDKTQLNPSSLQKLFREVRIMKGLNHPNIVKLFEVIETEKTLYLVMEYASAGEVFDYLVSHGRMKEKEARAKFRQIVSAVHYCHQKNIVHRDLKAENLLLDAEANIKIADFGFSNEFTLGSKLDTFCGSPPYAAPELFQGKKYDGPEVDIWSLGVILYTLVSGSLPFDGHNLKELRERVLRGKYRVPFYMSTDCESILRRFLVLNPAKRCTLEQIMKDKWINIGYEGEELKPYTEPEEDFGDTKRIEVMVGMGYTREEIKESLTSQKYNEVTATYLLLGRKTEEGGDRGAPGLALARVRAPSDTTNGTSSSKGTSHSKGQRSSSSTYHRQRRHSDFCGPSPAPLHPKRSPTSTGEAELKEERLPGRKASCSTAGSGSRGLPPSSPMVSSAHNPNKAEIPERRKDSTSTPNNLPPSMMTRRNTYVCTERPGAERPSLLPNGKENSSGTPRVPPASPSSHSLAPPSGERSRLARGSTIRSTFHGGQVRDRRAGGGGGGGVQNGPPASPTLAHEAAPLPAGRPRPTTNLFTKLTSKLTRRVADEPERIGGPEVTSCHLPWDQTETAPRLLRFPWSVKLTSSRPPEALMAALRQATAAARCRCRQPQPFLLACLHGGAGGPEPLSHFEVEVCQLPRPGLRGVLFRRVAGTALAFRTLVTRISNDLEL
# ERK5/MAPK7 = ERK5/MAPK7 (Homo sapiens, UniProt Q13164); conditions: 1 μM; Run 1, Run 2
# Chain of ERK5/MAPK7 (Q13164 whole entry): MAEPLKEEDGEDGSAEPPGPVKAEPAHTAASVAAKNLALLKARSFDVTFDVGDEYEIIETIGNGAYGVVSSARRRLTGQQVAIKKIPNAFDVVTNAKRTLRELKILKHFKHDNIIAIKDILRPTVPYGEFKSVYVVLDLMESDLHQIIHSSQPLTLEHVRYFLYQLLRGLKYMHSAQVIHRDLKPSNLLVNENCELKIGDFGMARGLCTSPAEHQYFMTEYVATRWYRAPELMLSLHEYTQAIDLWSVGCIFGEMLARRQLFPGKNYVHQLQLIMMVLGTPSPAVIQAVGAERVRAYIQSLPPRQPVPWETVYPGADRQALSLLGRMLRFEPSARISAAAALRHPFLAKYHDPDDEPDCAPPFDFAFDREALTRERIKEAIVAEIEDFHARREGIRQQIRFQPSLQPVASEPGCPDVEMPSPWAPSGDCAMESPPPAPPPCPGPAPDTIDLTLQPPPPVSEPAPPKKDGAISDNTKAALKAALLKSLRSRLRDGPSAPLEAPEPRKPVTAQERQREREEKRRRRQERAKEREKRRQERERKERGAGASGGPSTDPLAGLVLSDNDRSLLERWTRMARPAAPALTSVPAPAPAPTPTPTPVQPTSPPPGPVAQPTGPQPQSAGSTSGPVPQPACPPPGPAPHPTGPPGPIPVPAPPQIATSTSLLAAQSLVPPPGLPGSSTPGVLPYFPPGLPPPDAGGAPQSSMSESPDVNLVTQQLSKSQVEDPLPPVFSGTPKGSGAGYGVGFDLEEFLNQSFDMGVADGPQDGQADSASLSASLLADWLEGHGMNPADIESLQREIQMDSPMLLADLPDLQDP
# ULK2 = biological target: T2, ULK2 (Homo sapiens, UniProt Q8IYT8); conditions: 1 μM; Run 1, Run 2
# T2 sequence (Q8IYT8 1-1036): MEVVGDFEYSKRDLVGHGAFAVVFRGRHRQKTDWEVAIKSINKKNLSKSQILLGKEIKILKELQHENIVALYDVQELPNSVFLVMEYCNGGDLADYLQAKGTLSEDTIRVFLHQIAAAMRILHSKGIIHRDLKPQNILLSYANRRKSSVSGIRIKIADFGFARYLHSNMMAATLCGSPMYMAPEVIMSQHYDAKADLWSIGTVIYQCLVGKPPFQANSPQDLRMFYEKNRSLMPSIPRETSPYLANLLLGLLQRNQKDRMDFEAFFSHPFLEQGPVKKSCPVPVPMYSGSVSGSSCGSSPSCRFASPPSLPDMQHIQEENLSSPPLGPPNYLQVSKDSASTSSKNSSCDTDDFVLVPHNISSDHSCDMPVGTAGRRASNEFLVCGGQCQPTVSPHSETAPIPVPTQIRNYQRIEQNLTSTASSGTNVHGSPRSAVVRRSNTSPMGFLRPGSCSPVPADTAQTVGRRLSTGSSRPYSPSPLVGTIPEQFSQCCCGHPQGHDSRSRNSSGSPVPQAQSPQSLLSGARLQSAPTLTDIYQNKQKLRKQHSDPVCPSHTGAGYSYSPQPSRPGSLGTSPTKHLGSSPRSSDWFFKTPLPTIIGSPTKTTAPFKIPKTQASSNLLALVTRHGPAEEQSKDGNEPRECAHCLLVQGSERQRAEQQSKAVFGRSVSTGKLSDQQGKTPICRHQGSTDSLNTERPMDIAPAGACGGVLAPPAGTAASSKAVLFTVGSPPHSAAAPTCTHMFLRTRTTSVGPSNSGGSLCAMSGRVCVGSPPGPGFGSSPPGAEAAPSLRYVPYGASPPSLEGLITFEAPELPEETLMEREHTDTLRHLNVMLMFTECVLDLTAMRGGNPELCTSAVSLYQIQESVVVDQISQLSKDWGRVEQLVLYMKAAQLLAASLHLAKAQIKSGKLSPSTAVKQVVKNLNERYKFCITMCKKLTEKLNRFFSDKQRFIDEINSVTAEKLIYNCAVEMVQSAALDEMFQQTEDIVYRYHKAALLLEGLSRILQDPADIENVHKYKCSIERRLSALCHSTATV
# PKCmu/PRKD1 = biological target: T3, PKCmu/PRKD1 (Homo sapiens, UniProt Q15139); conditions: 1 μM; Run 1, Run 2
# T3 sequence (Q15139 1-912): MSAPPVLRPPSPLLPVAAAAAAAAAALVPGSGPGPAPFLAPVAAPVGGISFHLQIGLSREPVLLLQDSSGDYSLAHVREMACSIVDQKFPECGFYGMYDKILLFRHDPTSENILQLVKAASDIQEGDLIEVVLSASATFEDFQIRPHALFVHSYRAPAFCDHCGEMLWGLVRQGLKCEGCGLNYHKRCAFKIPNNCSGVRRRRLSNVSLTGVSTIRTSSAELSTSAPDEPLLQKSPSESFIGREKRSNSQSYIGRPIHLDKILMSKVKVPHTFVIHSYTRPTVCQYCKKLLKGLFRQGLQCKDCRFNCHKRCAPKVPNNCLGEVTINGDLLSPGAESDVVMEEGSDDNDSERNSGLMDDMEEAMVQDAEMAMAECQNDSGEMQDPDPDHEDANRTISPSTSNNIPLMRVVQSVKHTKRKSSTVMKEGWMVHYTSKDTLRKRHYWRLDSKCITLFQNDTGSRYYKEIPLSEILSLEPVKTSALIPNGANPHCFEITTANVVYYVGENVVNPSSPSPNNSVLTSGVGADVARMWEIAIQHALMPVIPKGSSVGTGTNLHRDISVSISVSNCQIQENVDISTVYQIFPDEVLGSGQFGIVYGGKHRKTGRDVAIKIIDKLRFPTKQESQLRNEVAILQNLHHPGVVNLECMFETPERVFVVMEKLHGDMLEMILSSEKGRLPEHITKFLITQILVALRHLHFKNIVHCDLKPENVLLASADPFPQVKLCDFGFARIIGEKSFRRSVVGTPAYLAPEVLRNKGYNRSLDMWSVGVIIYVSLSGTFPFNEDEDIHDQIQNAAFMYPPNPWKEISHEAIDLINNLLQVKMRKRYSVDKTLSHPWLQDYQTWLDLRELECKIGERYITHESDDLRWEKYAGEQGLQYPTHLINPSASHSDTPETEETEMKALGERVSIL
# Chain of MRCKb/CDC42BPB (Q9Y5S2 whole entry): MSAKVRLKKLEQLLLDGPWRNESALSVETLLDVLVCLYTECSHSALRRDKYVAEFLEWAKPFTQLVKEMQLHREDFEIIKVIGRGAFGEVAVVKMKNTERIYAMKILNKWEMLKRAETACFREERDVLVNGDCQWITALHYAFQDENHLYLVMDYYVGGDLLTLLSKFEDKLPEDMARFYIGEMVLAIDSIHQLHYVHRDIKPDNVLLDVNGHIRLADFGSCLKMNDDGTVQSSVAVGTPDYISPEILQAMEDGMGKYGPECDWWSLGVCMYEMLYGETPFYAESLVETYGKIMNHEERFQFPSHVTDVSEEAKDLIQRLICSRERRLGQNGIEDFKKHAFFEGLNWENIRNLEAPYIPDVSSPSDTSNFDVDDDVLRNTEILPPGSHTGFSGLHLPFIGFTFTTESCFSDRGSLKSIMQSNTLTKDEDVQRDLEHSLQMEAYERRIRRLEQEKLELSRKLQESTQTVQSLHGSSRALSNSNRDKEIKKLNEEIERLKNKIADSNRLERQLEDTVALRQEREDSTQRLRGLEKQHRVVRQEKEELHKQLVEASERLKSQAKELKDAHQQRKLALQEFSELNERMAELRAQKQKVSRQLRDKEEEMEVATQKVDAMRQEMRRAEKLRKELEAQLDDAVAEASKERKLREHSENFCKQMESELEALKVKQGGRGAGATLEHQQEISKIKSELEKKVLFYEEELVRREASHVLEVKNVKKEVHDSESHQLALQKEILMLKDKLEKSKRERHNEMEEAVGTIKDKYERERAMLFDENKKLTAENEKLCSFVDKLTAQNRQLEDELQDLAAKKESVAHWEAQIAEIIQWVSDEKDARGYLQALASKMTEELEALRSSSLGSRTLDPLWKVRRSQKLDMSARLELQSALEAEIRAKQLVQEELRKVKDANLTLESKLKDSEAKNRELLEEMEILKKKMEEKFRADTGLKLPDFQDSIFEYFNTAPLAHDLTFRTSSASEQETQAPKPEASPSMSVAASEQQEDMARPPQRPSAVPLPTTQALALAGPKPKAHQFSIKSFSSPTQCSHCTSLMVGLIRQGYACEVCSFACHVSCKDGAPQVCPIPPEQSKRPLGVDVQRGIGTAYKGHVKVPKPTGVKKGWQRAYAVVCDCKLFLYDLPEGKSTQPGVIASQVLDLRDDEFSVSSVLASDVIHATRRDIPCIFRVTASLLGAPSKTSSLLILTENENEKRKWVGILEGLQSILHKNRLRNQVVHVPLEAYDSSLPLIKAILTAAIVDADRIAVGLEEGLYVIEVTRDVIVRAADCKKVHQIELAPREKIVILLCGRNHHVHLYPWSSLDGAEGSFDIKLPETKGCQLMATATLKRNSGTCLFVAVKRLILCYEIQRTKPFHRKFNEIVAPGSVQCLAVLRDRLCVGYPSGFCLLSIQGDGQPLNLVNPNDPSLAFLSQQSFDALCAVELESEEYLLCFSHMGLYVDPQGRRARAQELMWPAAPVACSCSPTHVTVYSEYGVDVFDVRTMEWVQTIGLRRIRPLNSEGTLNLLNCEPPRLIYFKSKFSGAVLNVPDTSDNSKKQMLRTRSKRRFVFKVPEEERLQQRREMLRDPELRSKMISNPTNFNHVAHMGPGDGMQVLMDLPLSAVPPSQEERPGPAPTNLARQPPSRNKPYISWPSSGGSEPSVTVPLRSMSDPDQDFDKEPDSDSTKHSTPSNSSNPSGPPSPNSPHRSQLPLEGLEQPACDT
Structure (SMILES),remaining activity at 1 µM (MRCKb/CDC42BPB),remaining activity at 1 µM (MARK4),% enzyme activity (ERK5/MAPK7),% enzyme activity (ULK2),% enzyme activity (PKCmu/PRKD1)
"COc1cc(-c2cncc(-c3ccc(N4C[C@@H](C)N(C)[C@@H](C)C4)cc3)c2C)cc(F)c1C(N)=O [Compound 26c, 2-Fluoro-6-methoxy-4-(4-methyl-5-(4-((3R,5S)-3,4,5-trimethylpiperazin-1-yl)phenyl)pyridin-3-yl)benzamide]",99.7%,96.8%,98.01%,84.46%,95.09%
"COc1cc(-c2cncc(-c3ccc(N4CCN(C)CC4)cc3)c2C)cc(F)c1C(N)=O [Compound 26a, 2-Fluoro-6-methoxy-4-(4-methyl-5-(4-(4-methylpiperazin-1-yl)phenyl)pyridin-3-yl)benzamide]",94.6%,83.7%,92.77%,73.24%,88.26%
